Laboratory results reported in patent publication US11078534B2, “Photocleavable nucleotide reagents with high stability” (Roche Molecular Systems, Inc., priority 2017, dated 2021).

What was measured:
[1] = 5′-hydroxyl protecting group on phosphoramidites; cited from earlier work
[2] = Thermostability study at 65° C. (UPLC-MS); assay type: physicochemical; settings: up to 120 h; for degradation at 65° C. (percentage of starting material and degradation products, peak areas at 260 nm): 300 μM, 40% DMSO, 1.0 M potassium acetate
Procedure: An aqueous mixture was prepared, containing 300 μM dATP-SPh-NPP, 40% DMSO and 1.0 M potassium acetate. For reference another mixture with 300 μM dATP replacing dATP-SPh-NPP was prepared. 150 μL of each mixture were incubated at 65° C. in a Thermoshaker. After 0, 2, 18, 25, and 120 h samples of each solution (20 μL) were analyzed by UPLC-MS (Ultra performance liquid chromatography—mass spectrometry). The peak areas at 260 nm were used to calculate the percentage of starting material and degradation products.

polymerase enzyme = assay: Real-Time PCR (TaqMan PCR) amplification with caged dATP, with and without UV exposure; assay type: biochemical; settings: 400 μM dATP-SPh-NPP instead of dATP, 400 cp target DNA
Procedure: Real-Time PCR (TaqMan® PCR) mixtures with a total volume of 50 μL were prepared by combining three components termed PCR master mixture (20 μL), buffer mixture (20 μL), and dNTP mixture (10 μL). All PCR components were prepared from DEPC water. The PCR master mixture contained tricine buffer (pH 8.2), potassium acetate, glycerol, DMSO, detergent, target DNA (400 cp), polymerase aptamer, probe, primers, SYBR green dye, and polymerase enzyme. The buffer mixture contained manganese acetate (8.3 mM) and imidazole (0, 3.0, or 6.0 mM). The dNTP mixture contained dATP (400 μM), dCTP (400 μM), dGTP (400 μM), and dUTP (800 μM). Another dNTP mixture contained dATP-SPh-NPP (400 μM) instead of dATP. The final concentration of DNA target was 400 cp/reaction.
TaqMan® PCRs of equal composition were positioned on two separate sections of a 96-well plate. Each section contained PCR mixtures with regular dNTPs and PCR mixtures containing dATP-SPh-NPP. Each PCR was prepared as triplicate. One section of the plate was covered with aluminum foil, whereas the other section was exposed to light from an UV-LED lamp (InGaN, Quantum well, λmax=393 nm, 0.18 W/LED) for 8.0 min. at room temperature. […] The analysis of PCR growth curves was performed from fluorescence data collected in the Cy5.5 channel, while analysis of melting curves was based on fluorescence data collected in the FAM channel (465-510 nm).

[3] = Photocleavage by UV-LED irradiation (UPLC-MS); assay type: physicochemical; settings: UV-LED λmax=393 nm
Procedure: Two aqueous mixtures of dATP-SPh-NPP and ATP-DMNPE (300 μM each) were prepared in sodium phosphate buffer (100 mM, pH 7.0). Both samples were irradiated simultaneously with light from an UV-LED lamp (InGaN, Quantum well, λmax=393 nm, 0.18 W/LED) in open vials without shaking or stirring. After 0, 1, 2, 4, 8, and 16 min. the irradiation was shortly paused for sample removal (20 μL) and subsequent UPLC-MS analysis. The peak areas at 260 nm were used to calculate the percentage of starting material and photocleavage products. The molecular identities of the starting materials and cleavage products were confirmed by mass spectrometry.

Molecule	increase in photo-deprotection efficiency compared to conventional NPPOC [1] [fold]	degradation at 65° C. (percentage of starting material and degradation products, peak areas at 260 nm) [2]	PCR amplification after UV irradiation (polymerase enzyme; UV light for 8.0 min. at room temperature)	PCR amplification, no UV exposure (polymerase enzyme; no UV exposure)	thermostability compared to dATP [2]	irradiation time for full cleavage ([3]; 300 μM, 100 mM sodium phosphate buffer pH 7.0) [min]	photocleavage speed compared to ATP-DMNPE ([3]; both irradiated simultaneously, pH 7.0)	dATP released by irradiation ([3]; irradiation for 5 minutes, 300 μM, 100 mM sodium phosphate buffer pH 7.0) [%]
thiophenyl-2-(2-nitrophenyl)-propoxycarbonyl [SPh-NPPOC]	12	–	–	–	–	–	–	–
Nc1ncnc2c1ncn2[C@H]1C[C@H](O)[C@@H](COP(=O)(O)OP(=O)(O)OP(=O)(O)O)O1 [dATP, reference compound]	–	quickly degraded to the mono- and diphosphates	–	–	–	–	–	–
thiophenyl o-nitrophenylpropyl dATP [dATP-SPh-NPP]	–	no degradation products were observed	leads to DNA amplification	prevents PCR amplification	significantly more thermostable than dATP	8	significantly faster	> 90
